Results reported in patent US9745266B2 (THE REGENTS OF THE UNIVERSITY OF COLORADO, A BODY CORPORATE, priority 2013, dated 2017).
≈ marks a conversion by molar mass, not a printed value. Read-outs that look alike come from different tables or passages of the source.

Assays:
[1] = Mammalian cytotoxicity, CellTiter-Glo viability assay; assay type: cell-based, human; conditions: human, HeLa cells
Protocol: To evaluate the cytotoxicity of Of1 in mammalian cells, a cell viability assay was carried out using CellTiter-Glo luminescent cell viability assay kit (Promega). Human cervixcal adenocarcinoma HeLa cells were seeded on white, cell-culture treated 96-well plates (Corning: 3917) with Dulbecco's modified Eagle's medium (DMEM) supplemented with 10% fetal calf serum (FCS), 1% penicillin/streptomycin, at the densities of 20,000 cells/well. The medium volume for each well was 100 μL. Cells were incubated at 37° C. in 5% CO2/95% air for 16 hours. The medium was removed from each well and replaced with 99 μL of warmed fresh medium. To each well, 1 μL of Of1 analog was added in DMSO to final concentrations of 0.5-32 μg/mL. Each series was performed in triplicate. After incubation at 37° C. for another 24 hours, the plates were equilibrated to room temperature for 30 minutes. 100 μL of CellTiter-Glo reagent (Promega) was added to each well and mixed for 2 minutes on an orbital shaker. The plate was incubated at room temperature for another 10 minutes to stabilize luminescent signal. The luminescence of each sample was recorded in an Envision Multilabel Plate Reader (Perkin Elmer).

[2] = test system: MRSA ATCC BAA-44; experiment: MIC in the presence of 20 μM Of1 / alkaloid; assay type: cell-based, S. aureus; conditions: MRSA ATCC BAA-44; for fold of potentiation: MIC / MIC (+20 μM Of1); for MIC (+Of1): in the presence of 20 μM Of1
Protocol: Indoline alkaloid compounds were then screened for the ability to potentiate the activity of methicillin against MRSA. A multi-drug resistant MRSA strain (ATCC: BAA-44) was selected for the initial screening. […] To each well, 20 μM of each individual indoline alkaloid was added and the plates were incubated at 37° C. for 16 hrs.
The MRSA strain ATCC BAA-44 and the methicillin-sensitive S. aureus (MSSA) strain ATCC 25923 were used to determine the MIC values of various antimicrobial compounds in the presence of 20 μM Of1. The experiment was conducted similarly to the CLSI MIC determination described previously; however, MHB was supplemented with 40 μM Of1 prior to set up and inoculation. The final concentration of Of1 after inoculation with BAA-44 was 20 μM.

[3] = test system: MRSA ATCC BAA-44; experiment: MIC, CLSI broth microdilution; assay type: cell-based, S. aureus; conditions: MRSA ATCC BAA-44, compound alone
[4] = Staphylococcus aureus, read-out: MIC

## C=C1CCCC2Nc3c(F)cc(Br)cc3C12CCNS(=O)(=O)c1ccc(C)cc1 (stereo not drawn) [Cpd 13b, N-[2-(6-bromo-8-fluoro-4-methylidene-2,3,4,4a,9,9a-hexahydro-1H-carbazol-4a-yl)ethyl]-4-methylbenzene-1-sulfonamide]
[1]
  GI50 at 24 h: 22 µg/mL (≈ 45.9 µM)

## C=C1CCCC2Nc3c(F)cc(Br)cc3C12CCNS(=O)(=O)c1ccc(C(F)(F)F)cc1 (stereo not drawn) [Cpd 13i, N-[2-(6-bromo-8-fluoro-4-methylidene-2,3,4,4a,9,9a-hexahydro-1H-carbazol-4a-yl)ethyl]-4-(trifluoromethyl)benzene-1-sulfonamide]
[1]
  GI50 at 24 h: 8.7 µg/mL (≈ 16.3 µM)

## C=C1CCCC2Nc3c(F)cc(Br)cc3C12CCNS(=O)(=O)c1ccc(Br)c(Br)c1 (stereo not drawn) [Cpd 13j, 3,4-Dibromo-N-[2-(6-bromo-8-fluoro-4-methylidene-2,3,4,4a,9,9a-hexahydro-1H-carbazol-4a-yl)ethyl]benzene-1-sulfonamide]
[1]
  GI50 at 24 h: 20 µg/mL (≈ 32.1 µM)

## C=C1CCCC2Nc3c(Cl)cc(Cl)cc3C12CCNS(=O)(=O)c1ccc(Cl)cc1 (stereo not drawn) [Cpd 6k, 4-Chloro-N-[2-(6,8-dichloro-4-methylidene-2,3,4,4a,9,9a-hexahydro-1H-carbazol-4a-yl)ethyl]benzene-1-sulfonamide]
[1]
  GI50 at 24 h: 13.6 µg/mL (≈ 28.8 µM)

## amoxicillin/clavulanate
[2]
  fold of potentiation: 8
  MIC (+Of1): 4/2
[3]
  MIC: 32/16

## C=C1CCCC2Nc3c(F)cc(Br)cc3C12CCNS(=O)(=O)c1cc2ccccc2o1 (stereo not drawn) [Cpd 13t, N-[2-(6-bromo-8-fluoro-4-methylidene-2,3,4,4a,9,9a-hexahydro-1H-carbazol-4a-yl)ethyl]-1-benzofuran-2-sulfonamide]
[1]
  GI50 at 24 h: 12.3 µg/mL (≈ 24.3 µM)

## C=C1CCCC2Nc3c(F)cc(Br)cc3C12CCNS(=O)(=O)c1ccc(Cl)cc1 (stereo not drawn) [Cpd 6l, N-[2-(6-bromo-8-fluoro-4-methylidene-2,3,4,4a,9,9a-hexahydro-1H-carbazol-4a-yl)ethyl]-4-chlorobenzene-1-sulfonamide]
[1]
  GI50 at 24 h: 18.1 µg/mL (≈ 36.2 µM)

## CN(C)[C@@H]1C(O)=C(C(N)=O)C(=O)[C@@]2(O)C(O)=C3C(=O)c4c(O)cccc4[C@@](C)(O)[C@H]3C[C@@H]12 [tetracycline]
[2]
  fold of potentiation: 1
  MIC (+Of1): 64 µg/mL
[3]; [4]
  MIC: 64 µg/mL (≈ 144 µM)

## C=C1CCCC2Nc3c(F)cc(Br)cc3C12CCNS(=O)(=O)c1ccc(C#N)cc1 (stereo not drawn) [Cpd 13h, N-[2-(6-bromo-8-fluoro-4-methylidene-2,3,4,4a,9,9a-hexahydro-1H-carbazol-4a-yl)ethyl]-4-cyanobenzene-1-sulfonamide]
[1]
  GI50 at 24 h: 17 µg/mL (≈ 34.7 µM)

## C=C1CCCC2Nc3c(F)cc(Br)cc3C12CCNS(=O)(=O)c1ccc(Br)cc1 (stereo not drawn) [Cpd 13d, 4-Bromo-N-[2-(6-bromo-8-fluoro-4-methylidene-2,3,4,4a,9,9a-hexahydro-1H-carbazol-4a-yl)ethyl]benzene-1-sulfonamide]
[1]
  GI50 at 24 h: 22 µg/mL (≈ 40.4 µM)

## Cc1nnc(SCC2=C(C(=O)O)N3C(=O)[C@@H](NC(=O)Cn4cnnn4)[C@H]3SC2)s1 [cefazolin]
[2]
  fold of potentiation: 32
  MIC (+Of1): 4 µg/mL
[3]; [4]
  MIC: 128 µg/mL (≈ 282 µM)

## C=C1CCCC2Nc3c(F)cc(Br)cc3C12CCNS(=O)(=O)c1ccc(Br)c(F)c1 (stereo not drawn) [Cpd 13k, 4-Bromo-N-[2-(6-bromo-8-fluoro-4-methylidene-2,3,4,4a,9,9a-hexahydro-1H-carbazol-4a-yl)ethyl]-3-fluorobenzene-1-sulfonamide]
[1]
  GI50 at 24 h: 17.5 µg/mL (≈ 31.1 µM)

## C=C1CCCC2Nc3c(F)cc(Br)cc3C12CCNS(=O)(=O)c1cn(C)cn1 (stereo not drawn) [Cpd 13s, N-[2-(6-bromo-8-fluoro-4-methylidene-2,3,4,4a,9,9a-hexahydro-1H-carbazol-4a-yl)ethyl]-1-methyl-1H-imidazole-4-sulfonamide]
[1]
  GI50 at 24 h: 23 µg/mL (≈ 49 µM)

## C=C1CCC[C@@H]2Nc3c(F)cc(Br)cc3[C@]12CCNS(=O)(=O)c1ccc(OC(F)F)c(Cl)c1 (relative stereo)
[1]
  GI50 at 24 h: 15.4 µg/mL (≈ 27.2 µM)

## C=C1CCCC2Nc3ccc(Br)cc3C12CCNS(=O)(=O)c1ccc(Cl)c(Cl)c1 (stereo not drawn) [Cpd 12i, N-[2-(6-bromo-4-methylidene-2,3,4,4a,9,9a-hexahydro-1H-carbazol-4a-yl)ethyl]-3,4-dichlorobenzene-1-sulfonamide]
[1]
  GI50 at 24 h: 12.8 µg/mL (≈ 24.8 µM)

## C=C1CCCC2Nc3c(F)cc(Br)cc3C12CCNS(=O)(=O)c1ccc(I)cc1 (stereo not drawn) [Cpd 13e, N-[2-(6-bromo-8-fluoro-4-methylidene-2,3,4,4a,9,9a-hexahydro-1H-carbazol-4a-yl)ethyl]-4-iodobenzene-1-sulfonamide]
[1]
  GI50 at 24 h: 19.6 µg/mL (≈ 33.1 µM)

## C=C1CCCC2Nc3c(F)cc(Br)cc3C12CCNS(=O)(=O)c1ccc(OC)cc1 (stereo not drawn) [Cpd 13a, N-[2-(6-bromo-8-fluoro-4-methylidene-2,3,4,4a,9,9a-hexahydro-1H-carbazol-4a-yl)ethyl]-4-methoxybenzene-1-sulfonamide]
[1]
  GI50 at 24 h: 49 µg/mL (≈ 98.9 µM)

## C=C1CCCC2Nc3c(F)cc(Br)cc3C12CCNS(=O)(=O)c1ccc(Cl)nc1 (stereo not drawn) [Cpd 13r, N-[2-(6-bromo-8-fluoro-4-methylidene-2,3,4,4a,9,9a-hexahydro-1H-carbazol-4a-yl)ethyl]-6-chloropyridine-3-sulfonamide]
[1]
  GI50 at 24 h: 16.7 µg/mL (≈ 33.3 µM)

## C=C1CCCC2Nc3c(F)cc(Br)cc3C12CCNS(=O)(=O)c1ccc(Br)cc1C(F)(F)F (stereo not drawn) [Cpd 13l, 4-Bromo-N-[2-(6-bromo-8-fluoro-4-methylidene-2,3,4,4a,9,9a-hexahydro-1H-carbazol-4a-yl)ethyl]-2-(trifluoromethyl)benzene-1-sulfonamide]
[1]
  GI50 at 24 h: 21 µg/mL (≈ 34.3 µM)

## C=C1CCCC2Nc3c(F)cc(Br)cc3C12CCNS(=O)(=O)c1ccc(Br)cc1C (stereo not drawn) [Cpd 13n, 4-bromo-N-[2-(6-bromo-8-fluoro-4-methylidene-2,3,4,4a,9,9a-hexahydro-1H-carbazol-4a-yl)ethyl]-2-methylbenzene-1-sulfonamide]
[1]
  GI50 at 24 h: 13.5 µg/mL (≈ 24.2 µM)

## C=C1CCCC2Nc3c(F)cc(Br)cc3C12CCNS(=O)(=O)c1ccc(Cl)c(Cl)c1 (stereo not drawn) [Cpd 13f, N-[2-(6-bromo-8-fluoro-4-methylidene-2,3,4,4a,9,9a-hexahydro-1H-carbazol-4a-yl)ethyl]-3,4-dichlorobenzene-1-sulfonamide]
[1]
  GI50 at 24 h: 31 µg/mL (≈ 58 µM)

## C=C1CCCC2Nc3ccc(Br)cc3C12CCNS(=O)(=O)c1ccc(Br)cc1 (stereo not drawn) [Cpd 12g, 4-Bromo-N-[2-(6-bromo-4-methylidene-2,3,4,4a,9,9a-hexahydro-1H-carbazol-4a-yl)ethyl]benzene-1-sulfonamide]
[1]
  GI50 at 24 h: 40 µg/mL (≈ 76 µM)

## C=C1CCCC2Nc3c(F)cc(Br)cc3C12CCNS(=O)(=O)c1ccc(Br)c(C(F)(F)F)c1 (stereo not drawn) [Cpd 13m, 4-Bromo-N-[2-(6-bromo-8-fluoro-4-methylidene-2,3,4,4a,9,9a-hexahydro-1H-carbazol-4a-yl)ethyl]-3-(trifluoromethyl)benzene-1-sulfonamide]
[1]
  GI50 at 24 h: 8.3 µg/mL (≈ 13.6 µM)

## C=C1CCCC2Nc3c(F)cc(Br)cc3C12CCNS(=O)(=O)c1ccc(NC(C)=O)cc1 (stereo not drawn) [Cpd 13g, N-(4-{[2-(6-bromo-8-fluoro-4-methylidene-2,3,4,4a,9,9a-hexahydro-1H-carbazol-4a-yl)ethyl]sulfamoyl}phenyl)acetamide]
[1]
  GI50 at 24 h: 32 µg/mL (≈ 61.3 µM)

## C=C1CCCC2Nc3c(F)cc(Br)cc3C12CCNS(=O)(=O)c1cc(Br)c(Br)s1 (stereo not drawn) [Cpd 13p, 4,5-dibromo-N-[2-(6-bromo-8-fluoro-4-methylidene-2,3,4,4a,9,9a-hexahydro-1H-carbazol-4a-yl)ethyl]thiophene-2-sulfonamide]
[1]
  GI50 at 24 h: 14.6 µg/mL (≈ 23.2 µM)

## C=C1CCCC2Nc3c(F)cc(Br)cc3C12CCNS(=O)(=O)c1ccc(Br)c(C)c1 (stereo not drawn) [Cpd 13o, 4-bromo-N-[2-(6-bromo-8-fluoro-4-methylidene-2,3,4,4a,9,9a-hexahydro-1H-carbazol-4a-yl)ethyl]-3-methylbenzene-1-sulfonamide]
[1]
  GI50 at 24 h: 12.5 µg/mL (≈ 22.4 µM)

## C=C1CCCC2Nc3c(F)cc(Br)cc3C12CCNS(=O)(=O)c1ccc(F)cc1 (stereo not drawn) [Cpd 13c, N-[2-(6-bromo-8-fluoro-4-methylidene-2,3,4,4a,9,9a-hexahydro-1H-carbazol-4a-yl)ethyl]-4-fluorobenzene-1-sulfonamide]
[1]
  GI50 at 24 h: 18.3 µg/mL (≈ 37.9 µM)

## C=C1CCCC2Nc3c(F)cc(Br)cc3C12CCNS(=O)(=O)c1cncc(Br)c1 (stereo not drawn) [Cpd 13q, 5-bromo-N-[2-(6-bromo-8-fluoro-4-methylidene-2,3,4,4a,9,9a-hexahydro-1H-carbazol-4a-yl)ethyl]pyridine-3-sulfonamide]
[1]
  GI50 at 24 h: 11.2 µg/mL (≈ 20.5 µM)

## C=C1CCCC2Nc3ccc(Cl)cc3C12CCNS(=O)(=O)c1ccc(Cl)cc1 (stereo not drawn) [Cpd 6a, 4-Chloro-N-[2-(6-chloro-4-methylidene-2,3,4,4a,9,9a-hexahydro-1H-carbazol-4a-yl)ethyl]benzene-1-sulfonamide]
[1]
  GI50 at 24 h: 35 µg/mL (≈ 80 µM)

## C=C1CCCC2Nc3ccc(Br)cc3C12CCNS(=O)(=O)c1ccc(I)cc1 (stereo not drawn) [Cpd 12h, N-[2-(6-bromo-4-methylidene-2,3,4,4a,9,9a-hexahydro-1H-carbazol-4a-yl)ethyl]-4-iodobenzene-1-sulfonamide]
[1]
  GI50 at 24 h: 33 µg/mL (≈ 57.6 µM)
